Calls of active or inactive are those of the source.
Legend:
[1] = MITF Measured in Cell-Based System Using Plate Reader - 2084-01_Inhibitor_Dose_DryPowder_Activity_Set6.; type: functional
[2] = MITF Measured in Cell-Based System Using Plate Reader - 2084-01_Inhibitor_Dose_DryPowder_Activity_Set7.; type: functional
[3] = biological target: Aspartyl aminopeptidase (Plasmodium falciparum 3D7, UniProt Q8I2J3)
[4] = biological target: T1, Aminopeptidase N (Plasmodium falciparum FcB1/Columbia, UniProt O96935); assay: P. falciparum M1AAP inhibitors, biochemical, fluorogenic H-Leu-NHMec substrate, 1536-well (AID 1445); set-up: species or system Plasmodium falciparum 3D7, 3D7
T1 sequence (O96935 whole entry): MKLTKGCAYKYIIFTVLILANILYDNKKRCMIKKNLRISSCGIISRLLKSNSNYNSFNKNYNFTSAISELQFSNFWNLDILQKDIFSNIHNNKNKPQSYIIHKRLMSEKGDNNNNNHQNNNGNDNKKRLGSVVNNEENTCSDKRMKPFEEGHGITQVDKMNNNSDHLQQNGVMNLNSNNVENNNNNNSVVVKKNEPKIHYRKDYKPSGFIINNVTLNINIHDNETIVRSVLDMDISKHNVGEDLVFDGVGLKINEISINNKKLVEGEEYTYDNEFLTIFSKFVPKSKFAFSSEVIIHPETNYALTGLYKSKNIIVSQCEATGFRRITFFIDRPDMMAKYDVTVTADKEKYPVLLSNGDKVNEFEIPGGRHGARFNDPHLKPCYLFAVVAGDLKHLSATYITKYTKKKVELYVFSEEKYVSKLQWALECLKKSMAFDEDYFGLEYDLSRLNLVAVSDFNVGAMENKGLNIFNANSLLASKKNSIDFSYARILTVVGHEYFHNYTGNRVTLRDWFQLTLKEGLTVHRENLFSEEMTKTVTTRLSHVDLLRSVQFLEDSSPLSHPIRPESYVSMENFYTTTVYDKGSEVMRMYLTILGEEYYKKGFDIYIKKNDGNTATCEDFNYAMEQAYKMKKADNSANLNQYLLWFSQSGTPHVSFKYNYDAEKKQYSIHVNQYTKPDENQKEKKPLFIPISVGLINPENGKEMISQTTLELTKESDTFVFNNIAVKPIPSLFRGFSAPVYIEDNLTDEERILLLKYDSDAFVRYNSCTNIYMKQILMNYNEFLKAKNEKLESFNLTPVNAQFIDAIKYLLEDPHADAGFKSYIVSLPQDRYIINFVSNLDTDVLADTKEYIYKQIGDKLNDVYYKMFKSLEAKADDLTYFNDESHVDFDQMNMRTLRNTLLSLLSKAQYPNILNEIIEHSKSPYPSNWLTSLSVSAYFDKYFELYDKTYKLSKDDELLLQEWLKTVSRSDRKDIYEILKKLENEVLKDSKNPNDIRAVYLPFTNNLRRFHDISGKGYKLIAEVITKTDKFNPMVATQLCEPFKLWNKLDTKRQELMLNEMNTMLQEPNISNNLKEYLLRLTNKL

[5] = biological target: Dual specificity tyrosine-phosphorylation-regulated kinase 1A (Rattus norvegicus, UniProt Q63470); type: biochemical, Homo sapiens
[6] = biological target: Ephrin type-A receptor 4 (Mus musculus, UniProt Q03137); assay: inhibitors of EphA4 binding to KYL peptide, primary screen, biochemical, colorimetric, mouse EphA4 (AID 689); type: functional
[7] = cytotoxicity toward NIH3T3 fibroblasts, dose response, counter-screen, cell-based, ATP luminescence, mouse fibroblasts (AID 2010); type: functional;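 further: cells exposed to compound for about 90 hours before reading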
[8] = biological target: Rho-associated protein kinase 1 (Homo sapiens, UniProt Q13464); type: functional;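 further: measured within a broad kinome-wide panel profiling many kinases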
[9] = biological target: Insulin receptor (Homo sapiens, UniProt P06213); type: functional;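 further: insulin receptor kinase tested as one member of a kinome-wide kinase panel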
[10] = biological target: Calcium/calmodulin-dependent protein kinase type II subunit gamma (Homo sapiens, UniProt Q13555); type: functional
[11] = biological target: Homeodomain-interacting protein kinase 2 (Homo sapiens, UniProt Q9H2X6); type: functional;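 further: measured within a kinome-wide kinase profiling panel, HIPK2 being one panel member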
[12] = biological target: Serine/threonine-protein kinase BRSK1 (Homo sapiens, UniProt Q8TDC3); type: functional;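 further: measured within a kinome-wide kinase panel, with the target listed as KIAA1811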
[13] = biological target: Tyrosine-protein kinase receptor TYRO3 (Homo sapiens, UniProt Q06418); type: functional;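 further: TYRO3 value obtained as one member of a kinome-wide profiling panel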
[14] = biological target: Tyrosine-protein kinase Blk (Homo sapiens, UniProt P51451); type: functional;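 further: obtained as one member of a kinome-wide kinase assay panel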
[15] = biological target: Tyrosine-protein kinase Fer (Homo sapiens, UniProt P16591); type: functional;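 further: FER tested as one member of a kinome panel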
[16] = biological target: Serine/threonine-protein kinase TAO1 (Homo sapiens, UniProt Q7L7X3); type: functional
[17] = biological target: Calcium/calmodulin-dependent protein kinase type 1 (Homo sapiens, UniProt Q14012); type: functional
[18] = biological target: Mitogen-activated protein kinase 13 (Homo sapiens, UniProt O15264); type: functional
[19] = biological target: Serine/threonine-protein kinase Nek4 (Homo sapiens, UniProt P51957); type: functional
[20] = biological target: Activin receptor type-1 (Homo sapiens, UniProt Q04771); assay: Navigating the Kinome. Panel member name: ACVR1; type: functional
[21] = biological target: Serine/threonine-protein kinase pim-2 (Homo sapiens, UniProt Q9P1W9); type: functional;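 further: value comes from a broad kinase panel profiling study in which PIM2 was one of the panel members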
[22] = biological target: Serine/threonine-protein kinase Chk2 (Homo sapiens, UniProt O96017); type: functional;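 further: CHEK2 entry within a kinome-wide screening panel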
[23] = biological target: Tyrosine-protein kinase Lck (Homo sapiens, UniProt P06239); type: functional;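 further: lck was assayed as one member of a kinase panel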
[24] = biological target: MAP kinase-activated protein kinase 2 (Homo sapiens, UniProt P49137); type: functional;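 further: measured as one member of a kinome-wide kinase panel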
[25] = biological target: Receptor tyrosine-protein kinase erbB-4 (Homo sapiens, UniProt Q15303); type: functional;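 further: ERBB4 member of a kinome-wide kinase profiling panel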

Chain of Tyrosine-protein kinase Blk (P51451 whole entry): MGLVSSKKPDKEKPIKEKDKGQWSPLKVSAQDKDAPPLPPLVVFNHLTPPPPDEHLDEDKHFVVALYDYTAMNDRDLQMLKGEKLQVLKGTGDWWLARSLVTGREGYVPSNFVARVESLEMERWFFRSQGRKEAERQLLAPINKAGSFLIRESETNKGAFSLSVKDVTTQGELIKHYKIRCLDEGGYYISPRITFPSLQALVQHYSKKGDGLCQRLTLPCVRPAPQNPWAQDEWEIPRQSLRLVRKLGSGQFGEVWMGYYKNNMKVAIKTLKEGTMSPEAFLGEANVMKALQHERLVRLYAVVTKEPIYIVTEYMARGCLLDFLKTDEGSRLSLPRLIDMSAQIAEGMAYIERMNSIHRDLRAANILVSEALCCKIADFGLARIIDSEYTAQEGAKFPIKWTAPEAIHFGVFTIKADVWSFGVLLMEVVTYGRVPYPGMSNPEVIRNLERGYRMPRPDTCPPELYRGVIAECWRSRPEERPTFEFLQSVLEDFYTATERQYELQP
Chain of Tyrosine-protein kinase receptor TYRO3 (Q06418 whole entry): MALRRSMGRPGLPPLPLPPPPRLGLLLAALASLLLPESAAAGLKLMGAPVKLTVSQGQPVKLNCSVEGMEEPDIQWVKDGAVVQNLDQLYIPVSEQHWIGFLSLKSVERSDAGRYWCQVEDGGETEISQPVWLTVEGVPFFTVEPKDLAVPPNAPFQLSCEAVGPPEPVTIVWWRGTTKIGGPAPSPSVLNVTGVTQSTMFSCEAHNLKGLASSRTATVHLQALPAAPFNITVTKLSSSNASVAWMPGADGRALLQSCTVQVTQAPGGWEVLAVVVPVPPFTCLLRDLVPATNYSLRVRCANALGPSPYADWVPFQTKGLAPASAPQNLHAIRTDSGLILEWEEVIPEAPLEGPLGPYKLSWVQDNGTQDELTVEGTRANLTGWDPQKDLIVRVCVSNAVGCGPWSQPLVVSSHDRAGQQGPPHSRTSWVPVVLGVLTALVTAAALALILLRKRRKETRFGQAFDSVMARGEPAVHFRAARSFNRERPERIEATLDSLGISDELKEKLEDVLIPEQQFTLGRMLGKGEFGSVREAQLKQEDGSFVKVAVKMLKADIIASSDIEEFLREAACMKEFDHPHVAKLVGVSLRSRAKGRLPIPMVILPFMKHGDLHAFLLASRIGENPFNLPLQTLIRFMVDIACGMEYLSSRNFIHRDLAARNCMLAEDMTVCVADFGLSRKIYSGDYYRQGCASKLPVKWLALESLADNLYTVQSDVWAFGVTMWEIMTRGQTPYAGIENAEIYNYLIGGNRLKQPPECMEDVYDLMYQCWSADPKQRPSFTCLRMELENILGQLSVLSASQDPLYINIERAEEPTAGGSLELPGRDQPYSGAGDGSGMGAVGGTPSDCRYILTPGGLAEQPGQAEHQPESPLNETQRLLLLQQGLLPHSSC
Chain of Calcium/calmodulin-dependent protein kinase type II subunit gamma (Q13555 whole entry): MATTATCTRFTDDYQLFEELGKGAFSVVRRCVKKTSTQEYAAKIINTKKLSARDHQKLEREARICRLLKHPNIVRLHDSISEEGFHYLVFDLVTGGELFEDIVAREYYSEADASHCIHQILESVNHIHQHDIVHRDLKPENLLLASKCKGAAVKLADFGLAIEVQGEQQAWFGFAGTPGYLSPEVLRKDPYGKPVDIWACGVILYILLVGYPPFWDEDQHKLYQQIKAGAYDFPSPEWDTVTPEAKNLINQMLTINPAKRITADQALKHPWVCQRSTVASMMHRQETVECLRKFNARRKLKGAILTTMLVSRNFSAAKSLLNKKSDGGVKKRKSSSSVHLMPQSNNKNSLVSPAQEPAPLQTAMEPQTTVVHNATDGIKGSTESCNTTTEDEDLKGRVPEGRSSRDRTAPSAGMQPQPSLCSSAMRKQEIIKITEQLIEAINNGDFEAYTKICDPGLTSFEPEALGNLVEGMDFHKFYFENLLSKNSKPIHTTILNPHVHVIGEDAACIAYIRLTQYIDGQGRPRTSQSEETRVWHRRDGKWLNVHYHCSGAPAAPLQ
Chain of Serine/threonine-protein kinase BRSK1 (Q8TDC3 whole entry): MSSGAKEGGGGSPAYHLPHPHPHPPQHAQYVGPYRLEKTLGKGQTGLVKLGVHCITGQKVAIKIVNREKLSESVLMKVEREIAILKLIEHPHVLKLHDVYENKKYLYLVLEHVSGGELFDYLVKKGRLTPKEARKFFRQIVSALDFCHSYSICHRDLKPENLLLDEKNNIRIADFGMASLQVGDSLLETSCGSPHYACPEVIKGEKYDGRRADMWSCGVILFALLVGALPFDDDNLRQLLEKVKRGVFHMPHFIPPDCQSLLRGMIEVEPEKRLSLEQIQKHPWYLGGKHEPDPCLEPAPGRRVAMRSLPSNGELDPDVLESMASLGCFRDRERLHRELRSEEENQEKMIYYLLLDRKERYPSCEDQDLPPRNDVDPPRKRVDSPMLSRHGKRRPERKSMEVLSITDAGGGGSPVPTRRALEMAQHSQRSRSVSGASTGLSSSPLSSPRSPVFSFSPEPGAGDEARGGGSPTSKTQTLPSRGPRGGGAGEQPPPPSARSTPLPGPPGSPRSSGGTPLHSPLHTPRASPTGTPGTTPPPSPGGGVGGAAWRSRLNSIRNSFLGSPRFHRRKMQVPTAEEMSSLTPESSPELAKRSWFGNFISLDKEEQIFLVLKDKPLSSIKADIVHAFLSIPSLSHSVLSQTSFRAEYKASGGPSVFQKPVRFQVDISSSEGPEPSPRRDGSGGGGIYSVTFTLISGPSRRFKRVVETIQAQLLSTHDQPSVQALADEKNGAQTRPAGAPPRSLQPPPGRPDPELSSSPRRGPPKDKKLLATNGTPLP
Chain of Mitogen-activated protein kinase 13 (O15264 whole entry): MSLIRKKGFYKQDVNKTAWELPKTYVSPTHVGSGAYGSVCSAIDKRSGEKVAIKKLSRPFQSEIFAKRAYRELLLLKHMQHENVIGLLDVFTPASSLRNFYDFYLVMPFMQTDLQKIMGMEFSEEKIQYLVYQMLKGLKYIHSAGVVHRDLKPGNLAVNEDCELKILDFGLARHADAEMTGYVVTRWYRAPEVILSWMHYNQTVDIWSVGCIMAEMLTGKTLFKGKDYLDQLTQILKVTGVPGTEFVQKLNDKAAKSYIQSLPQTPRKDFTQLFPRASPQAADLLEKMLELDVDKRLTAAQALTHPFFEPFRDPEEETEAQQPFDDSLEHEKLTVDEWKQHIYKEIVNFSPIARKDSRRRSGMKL
Chain of Serine/threonine-protein kinase Chk2 (O96017 whole entry): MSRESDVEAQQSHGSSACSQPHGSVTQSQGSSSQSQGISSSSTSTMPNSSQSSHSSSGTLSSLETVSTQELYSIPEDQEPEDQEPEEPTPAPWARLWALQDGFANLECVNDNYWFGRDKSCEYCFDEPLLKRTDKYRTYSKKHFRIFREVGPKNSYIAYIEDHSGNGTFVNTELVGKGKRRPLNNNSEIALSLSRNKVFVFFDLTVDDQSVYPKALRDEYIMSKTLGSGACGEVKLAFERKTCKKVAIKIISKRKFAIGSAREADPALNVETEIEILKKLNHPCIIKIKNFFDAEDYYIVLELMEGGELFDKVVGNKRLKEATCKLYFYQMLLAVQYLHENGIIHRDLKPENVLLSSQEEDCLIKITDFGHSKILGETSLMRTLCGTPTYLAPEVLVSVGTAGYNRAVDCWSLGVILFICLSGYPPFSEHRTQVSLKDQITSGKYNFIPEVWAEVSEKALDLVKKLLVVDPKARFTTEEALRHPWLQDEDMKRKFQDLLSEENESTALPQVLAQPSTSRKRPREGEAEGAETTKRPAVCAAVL
Chain of Rho-associated protein kinase 1 (Q13464 whole entry): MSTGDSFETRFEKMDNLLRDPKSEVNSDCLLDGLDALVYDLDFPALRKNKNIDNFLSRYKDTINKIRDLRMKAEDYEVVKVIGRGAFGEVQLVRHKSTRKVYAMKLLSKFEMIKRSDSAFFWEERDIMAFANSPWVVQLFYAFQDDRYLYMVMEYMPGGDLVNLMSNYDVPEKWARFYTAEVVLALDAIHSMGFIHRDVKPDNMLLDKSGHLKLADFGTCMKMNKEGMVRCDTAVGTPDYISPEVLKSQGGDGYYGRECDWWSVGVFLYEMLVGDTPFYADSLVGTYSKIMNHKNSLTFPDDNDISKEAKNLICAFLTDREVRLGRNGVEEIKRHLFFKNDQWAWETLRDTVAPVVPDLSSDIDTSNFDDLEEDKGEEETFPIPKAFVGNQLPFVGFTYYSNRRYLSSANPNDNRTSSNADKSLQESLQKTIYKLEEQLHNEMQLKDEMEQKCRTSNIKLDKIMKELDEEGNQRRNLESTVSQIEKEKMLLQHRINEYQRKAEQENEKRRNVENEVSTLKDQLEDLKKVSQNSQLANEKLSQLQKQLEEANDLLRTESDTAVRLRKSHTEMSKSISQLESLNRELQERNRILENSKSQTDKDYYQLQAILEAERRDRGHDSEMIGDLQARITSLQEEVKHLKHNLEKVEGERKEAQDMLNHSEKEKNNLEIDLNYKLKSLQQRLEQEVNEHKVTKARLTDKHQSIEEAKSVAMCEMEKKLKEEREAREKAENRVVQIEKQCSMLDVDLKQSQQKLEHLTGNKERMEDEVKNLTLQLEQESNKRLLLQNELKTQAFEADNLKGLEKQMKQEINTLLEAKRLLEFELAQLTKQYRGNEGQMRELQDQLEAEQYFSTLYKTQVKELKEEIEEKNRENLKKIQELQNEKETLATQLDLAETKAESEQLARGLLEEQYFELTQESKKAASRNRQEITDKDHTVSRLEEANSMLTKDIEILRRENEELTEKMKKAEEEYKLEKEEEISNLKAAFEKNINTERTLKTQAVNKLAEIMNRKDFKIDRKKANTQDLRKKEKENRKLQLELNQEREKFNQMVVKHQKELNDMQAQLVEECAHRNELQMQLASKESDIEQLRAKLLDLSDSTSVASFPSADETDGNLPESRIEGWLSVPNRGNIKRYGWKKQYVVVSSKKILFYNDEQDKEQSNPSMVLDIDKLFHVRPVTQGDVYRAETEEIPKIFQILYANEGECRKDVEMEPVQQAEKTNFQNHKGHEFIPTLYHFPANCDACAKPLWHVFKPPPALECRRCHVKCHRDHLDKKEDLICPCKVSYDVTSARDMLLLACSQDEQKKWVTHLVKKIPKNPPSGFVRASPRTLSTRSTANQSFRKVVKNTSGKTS

Compound: C=CCNC1=C(Cl)C(=O)c2ccccc2C1=O
- AC50 [1]: 1560 nM (active)
- AC50 [2]: 735 nM (active)

Compound: CS(=O)(=O)c1ccc2c(c1)SC1=NC(=O)/C(=C/c3ccc(O)c(O)c3)C(=N)N12
- IC50 [3]: 2160 nM (active)
- IC50 [4]: 51200 nM (active)
- AC50 [5]: 2710 nM (active)

Compound: CCOC(=O)C(C(=O)OCC)c1cc(Br)c2noc3c2c1C(=O)c1ccccc1-3
- IC50 [6]: 300 nM (active)
- EC50 [7]: 3060 nM (active)

Compound: COc1ccc(C(=O)Nc2n[nH]c3ccc(-c4cn(Cc5ccccc5)nn4)cc23)cc1OC
- Ki [8]: 1260 nM (active)
- Ki [9]: 1260 nM (active)
- Ki [10]: 316 nM (active)
- Ki [11]: 25.1 nM (active)
- Ki [12]: 1260 nM (active)
- Ki [13]: > 2000 nM (inactive)
- Ki [14]: 1260 nM (active)
- Ki [15]: 251 nM (active)
- Ki [16]: 5010 nM (active)
- Ki [17]: > 1580 nM (inactive)
- Ki [18]: 501 nM (active)
- Ki [19]: 1000 nM (active)
- Ki [20]: 1000 nM (active)
- Ki [21]: > 2510 nM (inactive)
- Ki [22]: 50.1 nM (active)
- Ki [23]: 2510 nM (active)
- Ki [24]: 2000 nM (active)
- Ki [25]: > 3980 nM (inactive)
